Test results: ChEMBL document CHEMBL3714734, “Modulators of G protein-coupled receptor 88” (2013)

How the values were obtained:
[1] = target: T1, G protein-coupled receptor 88 (Homo sapiens, UniProt Q9GZN0); test: Modulator activity at GPR88 (unknown origin) incubated for 30 mins by cell based cAMP HTRF assay; format: functional
[2] = target: T1, G protein-coupled receptor 88; test: Modulator activity at GPR88 (unknown origin) expressed in cell membranes incubated for 1 hr by liquid scintillation counting based [35S]GTPgammaS binding assay; format: functional

T1 sequence (Q9GZN0 whole entry): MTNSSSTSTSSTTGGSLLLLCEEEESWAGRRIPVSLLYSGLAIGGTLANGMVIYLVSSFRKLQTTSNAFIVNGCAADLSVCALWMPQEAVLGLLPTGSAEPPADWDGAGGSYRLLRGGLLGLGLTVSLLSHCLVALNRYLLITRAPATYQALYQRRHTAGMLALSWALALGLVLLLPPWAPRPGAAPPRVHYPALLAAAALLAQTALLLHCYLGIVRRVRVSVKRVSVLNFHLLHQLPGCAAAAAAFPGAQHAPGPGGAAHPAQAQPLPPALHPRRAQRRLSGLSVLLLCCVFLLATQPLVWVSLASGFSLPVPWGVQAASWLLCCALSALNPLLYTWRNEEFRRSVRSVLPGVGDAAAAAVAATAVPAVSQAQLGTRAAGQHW

Row | SMILES | EC50 [1] [nM] | EC50 [2] [nM]
1 | CC[C@H](C)COc1ccc([C@H](CN2CCN(C)CC2)NC(=O)[C@H]2C[C@@H]2c2cccs2)cc1 | ≤ 130 | 
2 | CC[C@H](C)COc1ccc([C@H](CN)NC(=O)[C@H]2C[C@@H]2c2cccs2)cc1 |  | ≤ 130
3 | CCC(CC)COc1ccc([C@H](CO)NC(=O)[C@H]2C[C@@H]2c2cccs2)cc1 | ≤ 130 | 
4 | CCCC(C)COc1ccc([C@H](CN2CCN(C)CC2)NC(=O)[C@H]2C[C@@H]2c2cccs2)cc1 (stereo partly drawn) |  | ≤ 130
5 | CC[C@H](C)COc1ccc([C@H](CN)NC(=O)[C@H]2C[C@@H]2c2cccs2)c(C)c1 |  | ≤ 130
6 | CC[C@H](NC(=O)[C@H]1C[C@@H]1c1ccccc1)c1ccc(-c2ccc(OC)cc2)cc1 |  | ≤ 130

The remaining lines, values ahead:

Row | EC50 [1] [nM] | EC50 [2] [nM] | SMILES
7 | ≤ 130 |  | Cc1ccc(-c2ccc([C@H](CO)NC(=O)[C@H]3C[C@@H]3c3cccs3)cc2)cc1
8 | ≤ 130 |  | CCC(CC)COc1ccc([C@H](CO)NC(=O)[C@H]2C[C@@H]2c2cccs2)c(C)c1
9 | ≤ 130 |  | CC[C@H](C)COc1ccc([C@H](CO)NC(=O)[C@H]2C[C@@H]2c2cccs2)c(C)c1
10 |  | ≤ 130 | CCc1ccc(-c2ccc([C@H](CO)NC(=O)[C@H]3C[C@@H]3c3cccs3)cc2)cc1
11 |  | ≤ 130 | CCc1ccc(-c2ccc([C@H](CO)NC(=O)[C@H]3C[C@@H]3c3cccs3)c(OC)c2)cc1
12 | ≤ 130 |  | CCCC(C)COc1ccc([C@H](CO)NC(=O)[C@H]2C[C@@H]2c2cccs2)c(C)c1 (stereo partly drawn)
13 | ≤ 130 |  | CCCC#Cc1ccc([C@H](CO)NC(=O)[C@H]2C[C@@H]2c2cccs2)c(OC)c1
